Test system: 317291-083-R-J1-PDC complex spheroid growth
Test: Anticancer human tumor 317291-083-R-J1-PDC patient-derived soft tissue sarcoma cell line growth inhibition [Asc]
Settings: for IC50: curve of first compound; for viability, T/C: stronger effect = lower value
How it was run: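 Complex spheroids combining tumor cells with HUVEC endothelial cells and human MSCs, at 37 degrees C, 5% CO2; agents tested alone or combined, half-log dilutions from at or near clinical Cmax, or 10 microM if Cmax unknown.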
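Further: compound exposure lasted seven days after spheroids formed for three days.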
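Wherever viability, T/C is given: 100% = DMSO vehicle control wells.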

SMILES: CNC(C)C(=O)NC1CN(S(=O)(=O)c2cccc(S(=O)(=O)N3CCC4CCC(C(=O)NC(c5ccccc5)c5ccccc5)N4C(=O)C(NC(=O)C(C)NC)C3)c2)CCC2CCC(C(=O)NC(c3ccccc3)c3ccccc3)N2C1=O (configuration not stated) + CCN1C(C(=O)NC23CCC(C(=O)O)(CC2)CC3)C(c2cccc(Cl)c2F)C2(C(=O)Nc3cc(Cl)ccc32)C12CCCCC2
- IC50 (second compound 0.00949 µM): 253 nM
- IC50 (second compound 0.03 µM): 517 nM
- IC50 (second compound 0.0949 µM): 313 nM
- IC50 (second compound 0.3 µM): 459 nM
- IC50 (second compound 0.949 µM): > 1000 nM
- IC50 (second compound 3 µM): 75.2 nM
- viability, T/C (second compound 0.00949 µM, first compound 0.00316 µM): 96.9%
- viability, T/C (second compound 0.00949 µM, first compound 0.01 µM): 86%
- viability, T/C (second compound 0.00949 µM, first compound 0.0316 µM): 71.7%
- viability, T/C (second compound 0.00949 µM, first compound 0.1 µM): 61.3%
- viability, T/C (second compound 0.00949 µM, first compound 0.316 µM): 49.5%
- viability, T/C (second compound 0.00949 µM, first compound 1 µM): 32.1%
- viability, T/C (second compound 0.03 µM, first compound 0.00316 µM): 81.3%
- viability, T/C (second compound 0.03 µM, first compound 0.01 µM): 87.8%
- viability, T/C (second compound 0.03 µM, first compound 0.0316 µM): 72.5%
- viability, T/C (second compound 0.03 µM, first compound 0.1 µM): 65.2%
- viability, T/C (second compound 0.03 µM, first compound 0.316 µM): 50.9%
- viability, T/C (second compound 0.03 µM, first compound 1 µM): 47.7%
- viability, T/C (second compound 0.0949 µM, first compound 0.00316 µM): 108%
- viability, T/C (second compound 0.0949 µM, first compound 0.01 µM): 101%
- viability, T/C (second compound 0.0949 µM, first compound 0.0316 µM): 79.1%
- viability, T/C (second compound 0.0949 µM, first compound 0.1 µM): 67.4%
- viability, T/C (second compound 0.0949 µM, first compound 0.316 µM): 49.1%
- viability, T/C (second compound 0.0949 µM, first compound 1 µM): 39.2%
- viability, T/C (second compound 0.3 µM, first compound 0.00316 µM): 98.7%
- viability, T/C (second compound 0.3 µM, first compound 0.01 µM): 71.4%
- viability, T/C (second compound 0.3 µM, first compound 0.0316 µM): 70.9%
- viability, T/C (second compound 0.3 µM, first compound 0.1 µM): 68.7%
- viability, T/C (second compound 0.3 µM, first compound 0.316 µM): 54.5%
- viability, T/C (second compound 0.3 µM, first compound 1 µM): 41.1%
- viability, T/C (second compound 0.949 µM, first compound 0.00316 µM): 90.1%
- viability, T/C (second compound 0.949 µM, first compound 0.01 µM): 66.4%
- viability, T/C (second compound 0.949 µM, first compound 0.0316 µM): 64.1%
- viability, T/C (second compound 0.949 µM, first compound 0.1 µM): 62.4%
- viability, T/C (second compound 0.949 µM, first compound 0.316 µM): 38.9%
- viability, T/C (second compound 0.949 µM, first compound 1 µM): 63.8%
- viability, T/C (second compound 3 µM, first compound 0.00316 µM): 64.4%
- viability, T/C (second compound 3 µM, first compound 0.01 µM): 66.1%
- viability, T/C (second compound 3 µM, first compound 0.0316 µM): 59%
- viability, T/C (second compound 3 µM, first compound 0.1 µM): 47.7%
- viability, T/C (second compound 3 µM, first compound 0.316 µM): 34.6%
- viability, T/C (second compound 3 µM, first compound 1 µM): 35.4%

— PubChem BioAssay AID1963427 (Molecular Pharmacology Branch, DTP, NCI, 2024)
